Where no end group is shown, it is not given here.
What was measured:
[1] = Chitin micro-column binding; conditions: washed at pH 7, desorbed with 100 mM acetic acid (pH 2.8), SDS-PAGE
Phytophthora infestans = format: cell-based
B cinerea = assay: Effect of ions on antifungal activity (synthetic growth medium); format: cell-based, Botrytis cinerea; conditions: for increase of the IC50 values with CaCl2 at 1 mM: reference medium + 1 mM CaCl2; for effect of KCl at 10 mM on the dose-response curves: reference medium + 10 mM KCl; for increase of the IC50 values with KCl at 50 mM: reference medium + 50 mM KCl
[2] = tested on: Colletotrichum lindemuthianum MUCL 9577; format: cell-based
[3] = tested on: Alternaria brassicola MUCL 20297; format: cell-based
[4] = tested on: Fusarium oxysporum f.sp. pisi IMI 236441; format: cell-based
[5] = tested on: Pyrenophora tritici-repentis MUCL 30217; format: cell-based
[6] = tested on: Cercospora beticola strain K897; format: cell-based
Fusarium culmorum = format: physicochemical
Description: Tests for antifungal activity were performed with 20 μl samples diluted five-fold with growth medium containing Fusarium culmorum spores, according to the assay method given in Example 1. untreated control samples consisted of the test proteins at 500 μg/ml in 10 mM sodium phosphat buffer (pH 7). For digestions, different proteases were added at 100 μg/ml and incubated at 37° C. for 16 hours. Heat stability tests were performed by heating aliquots of the test proteins for 10 minutes at different temperatures up to 100° C. pH stability was tested by incubation of test proteins for 1 hour in either 20 mM glycine-HCl (pH 2) or glycine-NaOH (pH 11) and subsequent dialysis for 16 hours against 10 mM sodium phosphate buffer (pH 7) using benzoylated cellulose tubing. Reduction of dishulphide bridges was done by addition of DTE at 30 mM and Tris-HCl (pH 8.6) at 300 mM. The reagents were removed by reversed-phase chromatography. For digestions, different proteases were added at 200 μg/ml and incubated at 37° C. for 3 hours.

[7] = tested on: Fusarium culmorum IMI 180420; format: cell-based
plant pathogenic fungi = format: cell-based
[8] = tested on: Ascochyta pisi MUCL 30164; format: cell-based
[9] = tested on: Trichoderma viride (K1127); format: cell-based
[10] = tested on: Botrytis cinerea MUCL 30158; format: cell-based
[11] = tested on: Verticillium dahliae MUCL 19210; format: cell-based
[12] = tested on: Penicillium digitatum (K0879); format: cell-based
[13] = tested on: Rhizoctonia solani CBS 207-84; format: cell-based
[14] = tested on: Nectria haematococca Collection Van Etten 160-2-2; format: cell-based
[15] = tested on: Pyricularia oryzae MUCL 30166; format: cell-based
[16] = tested on: Fusarium oxysporum f.sp. lycopersici MUCL 909; format: cell-based
[17] = tested on: Saccharomyces cerevisiae JRY188; conditions: S cerevisiae
Description: Routinely, tests were performed with 20 μl of a (filter-sterilized) test solution and 80 μl of a fungal spore suspension (2×10^4 spores/ml) or mycelium fragments in either half strength potato dextrose broth (medium A) or half strength potato dextrose broth with CaCl2 and KCl added to final concentrations of 1 mM and 50 mM respectively (medium B). For experiments on the antagonistic effect of cations, a synthetic growth medium was used instead of Potato Dextrose Broth. […] Control microcultures contained 20 μl of sterile distilled water and 80 μl of the fungal spore suspension.
Unless otherwise stated the test organism was Fusarium culmorum (strain IMI 180420) and incubation was carried out at 25° C. for 48 hours. Percent growth inhibition is defined as 100 times the ratio of the corrected absorbance of the control microculture minus the corrected absorbance of the test microculture over the corrected absorbance at 595 nm of the control microculture. The corrected absorbance values equal the absorbance at 595 nm of the culture measured after 48 hours minus the absorbance at 595 nm measured after 30 min. […] The antifungal activity (units per ml) is calculated as 50 times the dilution factor of a test solution at which 50% growth inhibition is obtained under the given assay conditions.
Antibacterial activity was measured microspectrophotometrically as follows. […]

Phoma betae MUCL 9916 = format: cell-based
[18] = tested on: Verticillium albo-atrum (K0937); format: cell-based
[19] = tested on: Venturia inaegualis MUCL 15927; format: cell-based

Substance: Ac-AMP1: Antimicrobial protein from Amaranthus caudatus seeds, 29 residues, dimer of two identical 3 kDa subunits (SEQ ID NO: 5) (VGECVRGRCPSGMCCSQFGYCGKGPKYCG; cysteine pairing not given here; also: dimer of two identical subunits)
- affinity toward chitin [1]: exhibit affinity toward chitin
- IC50 (Phytophthora infestans): 12 µg/mL
- increase of the IC50 values with CaCl2 at 1 mM (B cinerea): five to six-fold
- effect of KCl at 10 mM on the dose-response curves (B cinerea): did not significantly affect the dose-response curves
- increase of the IC50 values with KCl at 50 mM (B cinerea): about three-fold

Substance: Ca-AMP1: Antimicrobial protein purified from seeds of Capsicum annuum (SEQ ID NO: 15) (QEQCGNQAGGRACANRLCCSQYGYCGSTRAYCGVGCQSNCGR)
- IC50 (μg/ml) Medium A [2]: 50 µg/mL
- IC50 (μg/ml) Medium B [2]: >500 µg/mL
- IC50 (μg/ml) Medium B [3]: >500 µg/mL
- IC50 (μg/ml) Medium A [4]: >500 µg/mL
- IC50 (μg/ml) Medium B [4]: >500 µg/mL
- affinity toward chitin [1]: exhibits affinity to chitin
- IC50 (μg/ml) Medium A [5]: 70 µg/mL
- IC50 (μg/ml) Medium B [5]: >500 µg/mL
- IC50 (μg/ml) Medium B [6]: 200 µg/mL
- antifungal activity after chymotrypsin treatment (Fusarium culmorum; chymotrypsin digestion, 37° C.): no affect on activity
- antifungal activity after heat treatment (Fusarium culmorum; heating for 10 minutes at different temperatures up to 100° C.): resistant to heat treatment at up to 80 °C for 10 minutes
- reduction of antifungal activity after pronase E treatment (Fusarium culmorum; pronase E digestion, 37° C.): at least 10 fold
- reduction of antifungal activity after proteinase K treatment (Fusarium culmorum; proteinase K digestion, 37° C.): at least 10 fold
- antifungal activity after reduction of disulphide bonds (Fusarium culmorum; reduction by DTE / dithiothreitol): completely abolished the antifungal activity
- reduction of antifungal activity after trypsin treatment (Fusarium culmorum; trypsin digestion, 37° C.): 2 fold
- IC50 (μg/ml) Medium A [7]: 4 µg/mL
- IC50 (μg/ml) Medium B [7]: >500 µg/mL
- morphological changes in partially inhibited fungal spores [7]: severe branching of the emerging hyphal tips
- number of pathogenic fungi with IC50 value below 10 μg/ml (plant pathogenic fungi): 10 of the fungi
- IC50 (μg/ml) Medium B [8]: >500 µg/mL
- IC50 (μg/ml) Medium A [9]: 200 µg/mL
- IC50 (μg/ml) Medium B [9]: >500 µg/mL
- IC50 (μg/ml) Medium B [10]: >500 µg/mL
- IC50 (μg/ml) Medium A [11]: 6 µg/mL
- IC50 (μg/ml) Medium B [11]: >500 µg/mL
- IC50 (μg/ml) Medium B [12]: >500 µg/mL
- IC50 (μg/ml) Medium A [13]: 8 µg/mL
- IC50 (μg/ml) Medium B [13]: >500 µg/mL
- IC50 (μg/ml) Medium A [14]: 4 µg/mL
- IC50 (μg/ml) Medium B [14]: >500 µg/mL
- IC50 (μg/ml) Medium A [15]: 5 µg/mL
- IC50 (μg/ml) Medium B [15]: >500 µg/mL
- IC50 (μg/ml) Medium A [16]: 300 µg/mL
- IC50 (μg/ml) Medium B [16]: >500 µg/mL
- IC50 [17]: 30 µg/mL
- IC50 (μg/ml) Medium A (Phoma betae MUCL 9916): 300 µg/mL
- IC50 (μg/ml) Medium B (Phoma betae MUCL 9916): >500 µg/mL
- IC50 (μg/ml) Medium B [18]: >500 µg/mL

Substance: Ac-AMP2: Antimicrobial protein from Amaranthus caudatus seeds, 30 residues, Ac-AMP1 plus a carboxyl-terminal arginine (SEQ ID NO: 6) (VGECVRGRCPSGMCCSQFGYCGKGPKYCGR; not fully specified; cysteine pairing not given here)
- IC50 [2]: 8 µg/mL
- IC50 [3]: 4 µg/mL
- affinity toward chitin [1]: exhibit affinity toward chitin
- IC50 [6]: 0.8 µg/mL
- IC50 [8]: 8 µg/mL
- IC50 [10]: 8 µg/mL
- IC50 [11]: 5 µg/mL
- IC50 [19]: 3 µg/mL
- increase of the IC50 values with CaCl2 at 1 mM (B cinerea): five to six-fold
- effect of KCl at 10 mM on the dose-response curves (B cinerea): did not significantly affect the dose-response curves
- increase of the IC50 values with KCl at 50 mM (B cinerea): about three-fold
